From the NIST ThermoML archive (doi:10.1016/j.jct.2017.09.022)
± gives the expanded uncertainty stated by the source.

Details: 101.33 kPa, Crystal, Small (less than 1 g) adiabatic calorimetry

C[C@@H](O)[C@H](N)C(=O)O [L-threonine]
Details	molar entropy [J/K/mol]
5 K	0.02162 ± 0.024
10 K	0.1746 ± 0.033
15 K	0.6735 ± 0.11
20 K	1.713 ± 0.25
25 K	3.326 ± 0.25
30 K	5.488 ± 0.5
35 K	8.065 ± 0.75
40 K	10.89 ± 1
45 K	13.89 ± 1.2
50 K	17.13 ± 1.5
60 K	23.7 ± 2.2
70 K	30.6 ± 1
80 K	37.33 ± 1.2
90 K	43.98 ± 1.6
100 K	50.55 ± 1.3
110 K	57.04 ± 1.4
120 K	63.44 ± 1.1
130 K	69.68 ± 1.2
140 K	75.91 ± 1.3
150 K	82.06 ± 1.5
160 K	88.05 ± 1.6
170 K	93.95 ± 1.6
180 K	99.86 ± 1.7
190 K	105.59 ± 1.8
200 K	111.33 ± 2
210 K	116.9 ± 2
220 K	122.47 ± 2.2
230 K	128.04 ± 2.2
240 K	133.45 ± 1.6
250 K	138.85 ± 1.7
260 K	144.26 ± 1.7
270 K	149.58 ± 1.8
280 K	154.82 ± 1.8
290 K	160.14 ± 2
298.15 K	164.38 ± 2
300 K	165.29 ± 2
310 K	170.53 ± 1.9
320 K	175.6 ± 1.9
330 K	180.67 ± 1.9
340 K	185.75 ± 2
350 K	190.73 ± 2
360 K	195.72 ± 2
370 K	200.71 ± 2.2
